Values after ≈ are worked out from the molar mass of the structure shown. *1 amine or outer side, *2 acyl side, *3 side chain or, on linkers, in order; H or OH if unused. Where a SMILES comes first, the peptide text is derived from it. Bridges are numbered along the chain shown (N, C = ends). [ ]: non-standard residue; d: D form. The star is where a group is joined. hTyr(3S-OH,4S-OH,3'-OSO3H) = N[C@H](C(=O)O)[C@H](O)[C@@H](O)c1ccc(O)c(OS(=O)(=O)O)c1; Orn(4R-OH,5R-OH) = O=C([C@H](C[C@@H](O)[C@@H](O)N[*:3])N[*:1])[*:2]; Pro(3S-OH,4S-Me) = C[C@H]1CN[C@H](C(=O)O)[C@H]1O; X1 = CCCCCOc1ccc(-c2cc(-c3ccc(C(=O)*)cc3)no2)cc1; Gln(3R-OH) = NC(=O)C[C@@H](O)[C@H](N)C(=O)O; Hyp = O=C(O)[C@@H]1C[C@@H](O)CN1
How the values were obtained:
Candida albicans [1] = test: Antifungal activity against fluconazole resistant Candida albicans ATCC 76615 assessed as reduction in fungal growth incubated for 24 hrs by two fold broth dilution method; type: functional
Candida tropicalis = test: Inhibition of Candida tropicalis ATCC750 chitin synthase at 300 ug/ml using UDP-GlcNAc as substrate incubated for 1 hr by microplate reader analysis relative to control; settings: dose 300.0 µg/ml
Aspergillus fumigatus [2] = test: Antifungal activity against Aspergillus fumigatus GIMCC 3.19 assessed as reduction in fungal growth incubated for 24 hrs by two fold broth dilution method; type: functional
Candida albicans [3] = test: Antifungal activity against Candida albicans ATCC 76615 assessed as reduction in fungal growth incubated for 24 hrs by two fold broth dilution method; type: functional
Aspergillus fumigatus [4] = test: Antifungal activity against Aspergillus fumigatus GIMCC 3.19 assessed as reduction in fungal growth in presence of sorbitol incubated for 24 hrs by two fold broth dilution method; type: functional
Aspergillus fumigatus [5] = test: Antifungal activity against fluconazole resistant Aspergillus fumigatus GIMCC 3.19 assessed as reduction in fungal growth incubated for 24 hrs by two fold broth dilution method; type: functional
Cryptococcus neoformans [6] = test: Antifungal activity against Cryptococcus neoformans ATCC 32719 assessed as reduction in fungal growth in presence of sorbitol incubated for 24 hrs by two fold broth dilution method; type: functional
Cryptococcus neoformans [7] = test: Antifungal activity against Cryptococcus neoformans ATCC 32719 assessed as reduction in fungal growth incubated for 24 hrs by two fold broth dilution method; type: functional
Aspergillus flavus [8] = test: Antifungal activity against Aspergillus flavus ATCC 16870 assessed as reduction in fungal growth in presence of sorbitol incubated for 24 hrs by two fold broth dilution method; type: functional
[9] = Inhibition of Candida tropicalis ATCC750 chitin synthase using UDP-GlcNAc as substrate incubated for 1 hr by microplate reader analysis
Aspergillus flavus [10] = test: Antifungal activity against fluconazole resistant Aspergillus flavus ATCC 16870 assessed as reduction in fungal growth incubated for 24 hrs by two fold broth dilution method; type: functional
Cryptococcus neoformans [11] = test: Antifungal activity against fluconazole resistant Cryptococcus neoformans ATCC 32719 assessed as reduction in fungal growth incubated for 24 hrs by two fold broth dilution method; type: functional
Candida albicans [12] = test: Antifungal activity against micafungin resistant Candida albicans ATCC 76615 assessed as reduction in fungal growth incubated for 24 hrs by two fold broth dilution method; type: functional
Aspergillus flavus [13] = test: Antifungal activity against Aspergillus flavus ATCC 16870 assessed as reduction in fungal growth incubated for 24 hrs by two fold broth dilution method; type: functional
Candida albicans [14] = test: Antifungal activity against Candida albicans ATCC 76615 assessed as reduction in fungal growth in presence of sorbitol incubated for 24 hrs by two fold broth dilution method; type: functional

Structure (SMILES)	MIC (Candida albicans [1]) [µg/mL]	inhibition (Candida tropicalis) [%]	MIC (Aspergillus fumigatus [2]) [µg/mL]	MIC (Candida albicans [3]) [µg/mL]	MIC (Aspergillus fumigatus [4]) [µg/mL]	MIC (Aspergillus fumigatus [5]) [µg/mL]	MIC (Cryptococcus neoformans [6]) [µg/mL]	MIC (Cryptococcus neoformans [7]) [µg/mL]	MIC (Aspergillus flavus [8]) [µg/mL]	IC50 [9] [µM]	MIC (Aspergillus flavus [10]) [µg/mL]	MIC (Cryptococcus neoformans [11]) [µg/mL]	MIC (Candida albicans [12]) [µg/mL]	MIC (Aspergillus flavus [13]) [µg/mL]	MIC (Candida albicans [14]) [µg/mL]
O=C(/C=C/C(=O)N1CCCC12Cc1ccccc1NC2=O)Nc1ccc(Cl)cc1 (centres undefined)	128 (≈ 312 µM)	71.8	4 (≈ 9.76 µM)	4 (≈ 9.76 µM)	64	64 (≈ 156 µM)	128	16 (≈ 39 µM)	64	170	64 (≈ 156 µM)	128 (≈ 312 µM)	128 (≈ 312 µM)	8 (≈ 19.5 µM)	32
O=C(/C=C/C(=O)N1CCCC12Cc1ccccc1NC2=O)Nc1ccc(Br)cc1 (centres undefined)	–	56.4	16 (≈ 35.2 µM)	8 (≈ 17.6 µM)	–	–	–	16 (≈ 35.2 µM)	–	520	–	–	–	16 (≈ 35.2 µM)	–
COc1cc(NC(=O)/C=C/C(=O)N2CCCC23Cc2ccccc2NC3=O)c(OC)cc1Cl (centres undefined)	–	67.9	32 (≈ 68.1 µM)	8 (≈ 17 µM)	–	–	–	32 (≈ 68.1 µM)	–	200	–	–	–	16 (≈ 34 µM)	–
COc1ccccc1NC(=O)/C=C/C(=O)N1CCCC12Cc1ccccc1NC2=O (centres undefined)	–	65.2	8 (≈ 19.7 µM)	8 (≈ 19.7 µM)	–	–	–	64 (≈ 158 µM)	–	300	–	–	–	16 (≈ 39.5 µM)	–
O=C(/C=C/C(=O)N1CCCC12Cc1ccccc1NC2=O)Nc1ccccc1Cl (centres undefined)	32 (≈ 78.1 µM)	76.1	4 (≈ 9.76 µM)	4 (≈ 9.76 µM)	64	32 (≈ 78.1 µM)	64	8 (≈ 19.5 µM)	128	120	16 (≈ 39 µM)	32 (≈ 78.1 µM)	32 (≈ 78.1 µM)	8 (≈ 19.5 µM)	32
CCCCCOc1ccc(-c2cc(-c3ccc(C(=O)N[C@H]4C[C@@H](O)[C@@H](O)NC(=O)[C@@H]5[C@@H](O)[C@@H](C)CN5C(=O)[C@H]([C@H](O)CC(N)=O)NC(=O)[C@H]([C@H](O)[C@@H](O)c5ccc(O)c(OS(=O)(=O)O)c5)NC(=O)[C@@H]5C[C@@H](O)CN5C(=O)[C@H]([C@@H](C)O)NC4=O)cc3)no2)cc1 [MICAFUNGIN] (X1-[Orn(4R-OH,5R-OH)]T[Hyp][hTyr(3S-OH,4S-OH,3'-OSO3H)][Gln(3R-OH)][Pro(3S-OH,4S-Me)]; lactam 1-C)	–	–	–	–	–	–	–	–	–	–	–	–	> 256	–	–
Cc1ccc(NC(=O)/C=C/C(=O)N2CCCC23Cc2ccccc2NC3=O)cc1 (centres undefined)	–	46.4	64 (≈ 164 µM)	32 (≈ 82.2 µM)	–	–	–	64 (≈ 164 µM)	–	1070	–	–	–	16 (≈ 41.1 µM)	–
Cc1ccccc1NC(=O)/C=C/C(=O)N1CCCC12Cc1ccccc1NC2=O (centres undefined)	–	47.2	8 (≈ 20.5 µM)	8 (≈ 20.5 µM)	–	–	–	64 (≈ 164 µM)	–	970	–	–	–	16 (≈ 41.1 µM)	–
O=C(/C=C/C(=O)N1CCCC12Cc1ccccc1NC2=O)Nc1ccc(Cl)cc1Cl (centres undefined)	64 (≈ 144 µM)	73.7	8 (≈ 18 µM)	4 (≈ 9 µM)	64	64 (≈ 144 µM)	128	16 (≈ 36 µM)	128	170	64 (≈ 144 µM)	64 (≈ 144 µM)	64 (≈ 144 µM)	8 (≈ 18 µM)	64
NC(=O)OC[C@H](O)[C@@H](O)[C@H](N)C(=O)N[C@H](C(=O)O)[C@H]1O[C@@H](n2cc(CO)c(=O)[nH]c2=O)[C@H](O)[C@@H]1O [POLYOXIN B]	–	86.1	8 (≈ 15.8 µM)	8 (≈ 15.8 µM)	64	–	128	16 (≈ 31.5 µM)	64	90	–	–	–	8 (≈ 15.8 µM)	64
COc1cccc(NC(=O)/C=C/C(=O)N2CCCC23Cc2ccccc2NC3=O)c1 (centres undefined)	–	48.3	32 (≈ 78.9 µM)	8 (≈ 19.7 µM)	–	–	–	32 (≈ 78.9 µM)	–	770	–	–	–	16 (≈ 39.5 µM)	–
O=C(/C=C/C(=O)N1CCCC12Cc1ccccc1NC2=O)Nc1cccc2ccccc12 (centres undefined)	–	53.6	16 (≈ 37.6 µM)	8 (≈ 18.8 µM)	–	–	–	64 (≈ 150 µM)	–	570	–	–	–	16 (≈ 37.6 µM)	–
COc1ccc(NC(=O)/C=C/C(=O)N2CCCC23Cc2ccccc2NC3=O)cc1 (centres undefined)	–	50.9	8 (≈ 19.7 µM)	16 (≈ 39.5 µM)	–	–	–	32 (≈ 78.9 µM)	–	590	–	–	–	32 (≈ 78.9 µM)	–
Cc1cccc(NC(=O)/C=C/C(=O)N2CCCC23Cc2ccccc2NC3=O)c1 (centres undefined)	–	44.1	64 (≈ 164 µM)	16 (≈ 41.1 µM)	–	–	–	128 (≈ 329 µM)	–	1210	–	–	–	32 (≈ 82.2 µM)	–
Cc1cc(C)cc(NC(=O)/C=C/C(=O)N2CCCC23Cc2ccccc2NC3=O)c1 (centres undefined)	–	45.7	32 (≈ 79.3 µM)	16 (≈ 39.7 µM)	–	–	–	32 (≈ 79.3 µM)	–	990	–	–	–	32 (≈ 79.3 µM)	–
OC(Cn1cncn1)(Cn1cncn1)c1ccc(F)cc1F [FLUCONAZOLE]	> 256	–	4 (≈ 13.1 µM)	4 (≈ 13.1 µM)	–	> 256	–	8 (≈ 26.1 µM)	–	–	> 256	> 256	–	8 (≈ 26.1 µM)	–
